Results published in US20150011483A1, “Inhibition of HIV-1 Infection by Potent Metallocene Conjugated Peptide Through Conformational Entrapment of Envelope GP120” (priority 2007, published 2015).
Read-outs that look alike come from different tables or passages of the source.

How the values were obtained:
HIV-1 strain BaL [1] = conditions: P4-CCR5 cells (Gopi et al., 2008); read-out: IC50, inhibition of infection by HIV-1 BaL; cited from earlier work
HIV-1 strain BaL [2] = assay: Combination of HNG-156 and cyanovirin-N against HIV-1 BaL infection of P4-CCR5 cells; assay type: cell-based; conditions: for IC50, viral infectivity inhibition: HIV-1 BaL, P4-CCR5 cells, combination at constant ratio 1:8.2 by weight, plotted against first-named component
Method: Dextran sulfate (DS) was used as a comparative. […] Combination Indexes (CIs) were calculated using the CalcuSyn software. […] CI values were calculated for 50, 75, and 90% HIV inhibition.

gp120 binding to sCD4 = target: T1, gp120 binding to sCD4 (Human immunodeficiency virus type 1 group M subtype B, UniProt P35961); parameters: species or system HIV-1; conditions: in the presence of HNG-156
T1 construct: made in house; host or cells: sCD4: CHO cells; gp120 (if YU2): Drosophila S2 cells

17b = assay: SPR direct binding of peptide to immobilized 17b
HIV-1 YU2 gp120 = target: T2, HIV-1 YU2 gp120 (Human immunodeficiency virus type 1 group M subtype B, UniProt P35961); assay: SPR direct binding to immobilized YU2 gp120
T2 construct: made in house; host or cells: Drosophila S2 cells
Method: All surface plasmon resonance experiments (SPR) were performed on a BIA3000 optical biosensor (Biocore, Inc., Uppsala, Sweden). […] For direct binding experiments, YU2 gp120 was immobilized on the surface (˜4000RU); peptide analytes in PBS buffer were passed over the surface at a flow rate of 50 μL/min. with 5 minute association phase and 5 minute dissociation phase. […] The indicated analytes were passed over the surfaces at a flow rate of 50 μL/minute, with 2.5 minute association phase and 2.5 minute dissociation phase.
Data analysis was performed using BIAEvaluation® 4.0 software (Biacore Inc., NJ). The responses of a buffer injection and responses from the control surface to which the mAb 2B6R was immobilized, were subtracted to account for nonspecific binding. Experimental data were fitted to a simple 1:1 Langmuir binding model with a parameter included for mass transport. The average kinetic parameters (association [ka] and dissociation [kd] rates) generated from a minimum of four datasets were used to define equilibrium association (KA) and dissociation constants (KD).

HIV-1 strain BaL [3] = assay: Inhibition of HIV-1 BaL infection of P4-CCR5 cells (whole virus assay); assay type: cell-based
Text: Infectivity remaining is expressed relative to mock-treated, HIV-1-infected cells.

[4] = target: T3, YU2 gp120 binding to sCD4 (Human immunodeficiency virus type 1 group M subtype B, UniProt P35961); assay: SPR competition: inhibition of YU2 gp120 binding to immobilized sCD4; parameters: species or system HIV-1; conditions: 100 nM YU2 gp120, peptide 10 to 600 nM
T3 construct: made in house; host or cells: gp120: Drosophila S2 cells; sCD4: CHO cells
Text: (§1) In one experiment, antibodies b6, b12, or F105 were immobilized on a biosensor CM5 chip.

gp120 binding to 2G12 = target: T4, gp120 binding to 2G12 (Human immunodeficiency virus type 1 group M subtype B, UniProt P35961); assay: Effect on gp120 binding to antibody 2G12; parameters: species or system HIV-1
T4 construct: with a constant concentration (100 nM) of YU2 gp120

HIV-1 92UG037-08 gp120 = assay: SPR direct binding to immobilized 92UG037-08 gp120; conditions: HIV-1 env 92UG037-08 (A)
YU2 gp120 binding to 17b = target: T5, YU2 gp120 binding to 17b (Human immunodeficiency virus type 1 group M subtype B, UniProt P35961); assay: SPR competition: inhibition of YU2 gp120 binding to immobilized 17b; parameters: species or system HIV-1; conditions: 100 nM YU2 gp120, peptide 10 to 600 nM
T5 construct: made in house; host or cells: gp120: Drosophila S2 cells
Text: as §1

P4-CCR5 cells [5] = assay: In vitro cytotoxicity, MTT assay; assay type: cell-based; conditions: concentrations as high as 0.1 mg/ml, 2 hours
Method: P4-CCR5 cells were seeded at a density of 4×10^4 cells/well in a 96 well plate approximately 18 hours prior to experiment. […] The cells were subsequently washed and assessed for viability using a 3-(4,5-dimethylthiazol-2-yl)-2,5-diphenyltetrazolium bromide (MTT) assay of viability (previously described in Krebs et al. (1999). Concentrations were tested in triplicate in two independent assays.

sCD4 = target: T6, sCD4 (Homo sapiens, UniProt P01730); assay: SPR direct binding of peptide to immobilized sCD4
T6 construct: made in house; host or cells: CHO cells

P4-CCR5 cells [6] = conditions: at concentrations corresponding to IC50 values; cited from earlier work

CC[C@H](C)[C@H](NC(=O)[C@@H](N)CCCNC(=N)N)C(=O)N[C@@H](CC(N)=O)C(=O)N[C@@H](CC(N)=O)C(=O)N[C@H](C(=O)N1CCC[C@H]1C(=O)N[C@@H](Cc1c[nH]c2ccccc12)C(=O)N[C@@H](CO)C(=O)N[C@@H](CCC(=O)O)C(=O)N[C@@H](C)C(=O)N[C@@H](CCSC)C(=O)N[C@@H](CCSC)C(=O)O)[C@@H](C)CC [12p1, reference compound]
IC50 (HIV-1 strain BaL [1]): 48000 nM

CC[C@H](C)[C@H](NC(=O)[C@@H](N)CCCNC(=N)N)C(=O)N[C@@H](CC(N)=O)C(=O)N[C@@H](CC(N)=O)C(=O)N[C@H](C(=O)N1C[C@@H](n2cc([C]34[CH]5[CH]6[CH]7[CH]3[Fe]6754389%10[CH]4[CH]3[CH]8[CH]9[CH]4%10)nn2)C[C@H]1C(=O)N[C@@H](Cc1c[nH]c2ccccc12)C(=O)N[C@@H](CO)C(=O)N[C@@H](CCC(=O)O)C(=O)N[C@@H](C)C(=O)N[C@@H](CCSC)C(=O)N[C@@H](CCSC)C(N)=O)[C@@H](C)CC (some centres unmarked) [HNG-156]
IC50, viral infectivity inhibition (HIV-1 strain BaL [2]): 0.213 microgram/milliter
reduction of the affinity of CD4 (gp120 binding to sCD4): reduced by two orders of magnitude
direct binding to 17b (17b): no direct binding
kd (HIV-1 YU2 gp120; HIV-1 env YU2, Table 1): 0.000955 s⁻¹
affinity higher than HNG-105's affinity (HIV-1 YU2 gp120; YU2 gp120): roughly 3 fold
more effective than HNG-105 in inhibiting infection (HIV-1 strain BaL [3]; HIV-1 BaL): approximately 15 fold
inhibition of binding of gp120 to sCD4 surface [4]: complete inhibition
effect on the binding of 2G12 (gp120 binding to 2G12): did not show any effect
Kd (HIV-1 92UG037-08 gp120): 16.3 nM
ka (HIV-1 92UG037-08 gp120): 106000 M⁻¹ s⁻¹
inhibition of binding of gp120 to 17b surface (YU2 gp120 binding to 17b): complete inhibition
effect on P4-CCR5 cell viability (P4-CCR5 cells [5]): no effect
direct binding to sCD4 (sCD4): no direct binding

RINNIPWSEAMM [HNG-113]
impact on cell viability (P4-CCR5 cells [6]): no or minimal impact
IC50 (HIV-1 strain BaL [1]): 156 nM

RINNIPWSEAMM [HNG-124]
impact on cell viability (P4-CCR5 cells [6]): no or minimal impact
IC50 (HIV-1 strain BaL [1]): 418 nM

RINNIPWSEAMM [HNG-137]
impact on cell viability (P4-CCR5 cells [6]): no or minimal impact
IC50 (HIV-1 strain BaL [1]): 610 nM

dextran sulfate [DS]
IC50, viral infectivity inhibition (HIV-1 strain BaL [2]): 0.900 microgram/milliter
IC50 (HIV-1 strain BaL [3]; result of one trial): 9800 nM
IC50, inhibition of infection by HIV-1 BaL (HIV-1 strain BaL [3]; result of one trial): 4.9 µg/mL

B1: Cyanovirin-N: 11 kD protein originally isolated from the cyanobacteria Nostoc ellipsosporum, binds gp120 (protein, listed as Nostoc ellipsosporum)
chain: LGKFSQTCYNSAIQGSVLTSTCERTNGGYNTSSIDLNSVIENVDGSLKWQPSNFIETCRNTQLAGSSELAAECKTRAQQFVSTKINLDDHIANIDGTLKYE
modifications: DISULFID (8)..(22) disulfide bond
improvement in the efficacy of CV-N in viral inhibition upon addition of HNG-156 (HIV-1 strain BaL [2]): ~10 fold
IC50, viral infectivity inhibition (HIV-1 strain BaL [2]): 0.026 microgram/milliter
EC50 Dm (HIV-1 strain BaL [2]; dose at which 50% neutralization occurs): 0.045 µg/mL
